Literature values, collected in US20100227313A1, “Methods and Compositions for Determining Altered Susceptibility of HIV-1 to Protease Inhibitor Treatment” (priority 2007, published 2010).

System: HIV protease
Conditions: 2006, cited from earlier work

## CC(C)CN(C[C@@H](O)[C@H](Cc1ccccc1)NC(=O)O[C@H]1CCOC1)S(=O)(=O)c1ccc(N)cc1 [APV, amprenavir]
I47A, de Mendoza et al.
  effect of I47A mutation on susceptibility: reduced susceptibility
L33F, Kozal et al.
  effect of L33F mutation in protease on susceptibility: correlate with resistance
